Data as given in patent publication US9994515B2, “Aryl naphthyl methanone oxime(s) and process for preparation thereof” (Council of Scientific & Industrial Research, priority 2013, dated 2018).
Structures can show the parent of a compound that is named as a salt.

Key:
[1] = test system: Colo205; test: Sulphorhodamine B assay in Colo205 colon cancer cells; type: cell-based; conditions: Homo sapiens, COLO 205; SRB assay
[2] = test system: Kasumi 1; test: Cytotoxicity in Kasumi 1 cells; type: cell-based; conditions: Table 2; oxalate
[3] = test system: DLD1; test: Sulphorhodamine B assay in DLD1 colon cancer cells; type: cell-based; conditions: Homo sapiens, DLD-1; SRB assay
[4] = test system: K562; test: Differentiation of K562 cells (Wright-Giemsa staining); type: cell-based; conditions: 0.5 μM; 3, 6 and 12 days
Text: In order to clarify whether the inhibitory effects of Centans on the growth and cell cycle of K562 cells was followed by differentiation, Centans treated cells was stained with Wright-Giemsa stain. […] This differentiation was much more pronounced at 12d, where mature megakaryocytes were visible (FIG. 4A). Confirmation of Centans-mediated megakaryocytic differentiation was attained through measurement of expression of relevant cell differentiation markers by quantitative real time PCR. mRNA expression levels of cluster of differentiation 10 (CD10) (transiently present during B-cell maturation at early-B and pre-B lymphoblastic stages and related to megakaryocytic differentiation), CD36 (erythroid differentiation lineage), GATA2 (Over expression of GATA-2 inhibits erythroid and promotes megakaryocyte differentiation) and CD61 (megakaryocytic differentiation marker) was measured.
FIG. 4. CentANS induces Differentiation in K562 cells. […] (B) Expression of differentiation Markers—K562 cells were treated with vehicle; V (DMSO) or centANS and mRNA from these cells were isolated and reverse transcribed. cDNA was used to measure the expression CD10, GATA2, CD61, (megakaryocytic lineage markers) and CD36 (Erythroid lineage marker) by Quantitative Real time PCR, GAPDH was used as control. […]

[5] = test system: PBMCs from patients with BCR-ABL H396R mutation; test: MTT cytotoxicity in PBMCs from CML patient with H396R BCR-ABL mutation; type: cell-based, human; conditions: 5 μM, 48 h
[6] = test system: MCF-7; test: Annexin V/PI apoptosis flow cytometry in MCF-7; type: cell-based; conditions: 24 h
Experimental: To assess if the cell death induced by centans in MCF-7 and MDA-MB231 lines is apoptotic in nature, apoptosis was measured by flow cytometry using annexin V/PI staining kit from Sigma according to manufacturer's instructions.
FIG. 6 Apoptosis induction by Centans in breast cancer cells. Annexin V/PI staining of (A) MCF-7 and (B) MDA-MB231 cells were treated with vehicle (DMSO) or Centans at indicated concentrations for 24 h and […] was assessed by flow cytometry using the FL1-H channel (Annexin-V) and FL2-H channel (PI) of a Becton Dickinson FACS Calibur. Shown are representative dot plots. Quantification of flow cytometry data shown as percent of total cells (right panel). Data presented as mean±SEM from three independent experiments; *P<0.05, **P<0.01, and ***P<0.001 compared to control.

[7] = test system: K562; test: MTT cytotoxicity assay in K562 cells; type: cell-based; conditions: Homo sapiens, K562, 48 h, Table 3; MTT, 48 h, 10 point dose response; read-out: IC 50 K562
[8] = target: T1, BCR-ABL (Homo sapiens, UniProt P00519); test: BCR-ABL phosphorylation by immunoblotting in K562 cells; type: cell-based; conditions: 0.5 μM, 1 μM Centans or 1 μM Imatinib, 48 h, western blot
T1 construct: Centans causes growth arrest and apoptosis in Bcr-Abl positive K562 cells; BCR (N-terminal part of breakpoint cluster region protein, P11274); endogenous in cells; host or cells: K562; the other entry of the earlier key: BCR (P11274, Breakpoint cluster region protein)
Experimental: Kinase activity of Bcr-Abl is the major cause of CML, and since Centans causes growth arrest and apoptosis in Bcr-Abl positive K562 cells, phosphorylation status of Bcr-Abl which is representative of its kinase activity was measured by immunoblotting.
FIG. 3. […] ELF4E and β-actin were used as loading control.

T1 sequence (P00519 with tags, fused parts or gaps): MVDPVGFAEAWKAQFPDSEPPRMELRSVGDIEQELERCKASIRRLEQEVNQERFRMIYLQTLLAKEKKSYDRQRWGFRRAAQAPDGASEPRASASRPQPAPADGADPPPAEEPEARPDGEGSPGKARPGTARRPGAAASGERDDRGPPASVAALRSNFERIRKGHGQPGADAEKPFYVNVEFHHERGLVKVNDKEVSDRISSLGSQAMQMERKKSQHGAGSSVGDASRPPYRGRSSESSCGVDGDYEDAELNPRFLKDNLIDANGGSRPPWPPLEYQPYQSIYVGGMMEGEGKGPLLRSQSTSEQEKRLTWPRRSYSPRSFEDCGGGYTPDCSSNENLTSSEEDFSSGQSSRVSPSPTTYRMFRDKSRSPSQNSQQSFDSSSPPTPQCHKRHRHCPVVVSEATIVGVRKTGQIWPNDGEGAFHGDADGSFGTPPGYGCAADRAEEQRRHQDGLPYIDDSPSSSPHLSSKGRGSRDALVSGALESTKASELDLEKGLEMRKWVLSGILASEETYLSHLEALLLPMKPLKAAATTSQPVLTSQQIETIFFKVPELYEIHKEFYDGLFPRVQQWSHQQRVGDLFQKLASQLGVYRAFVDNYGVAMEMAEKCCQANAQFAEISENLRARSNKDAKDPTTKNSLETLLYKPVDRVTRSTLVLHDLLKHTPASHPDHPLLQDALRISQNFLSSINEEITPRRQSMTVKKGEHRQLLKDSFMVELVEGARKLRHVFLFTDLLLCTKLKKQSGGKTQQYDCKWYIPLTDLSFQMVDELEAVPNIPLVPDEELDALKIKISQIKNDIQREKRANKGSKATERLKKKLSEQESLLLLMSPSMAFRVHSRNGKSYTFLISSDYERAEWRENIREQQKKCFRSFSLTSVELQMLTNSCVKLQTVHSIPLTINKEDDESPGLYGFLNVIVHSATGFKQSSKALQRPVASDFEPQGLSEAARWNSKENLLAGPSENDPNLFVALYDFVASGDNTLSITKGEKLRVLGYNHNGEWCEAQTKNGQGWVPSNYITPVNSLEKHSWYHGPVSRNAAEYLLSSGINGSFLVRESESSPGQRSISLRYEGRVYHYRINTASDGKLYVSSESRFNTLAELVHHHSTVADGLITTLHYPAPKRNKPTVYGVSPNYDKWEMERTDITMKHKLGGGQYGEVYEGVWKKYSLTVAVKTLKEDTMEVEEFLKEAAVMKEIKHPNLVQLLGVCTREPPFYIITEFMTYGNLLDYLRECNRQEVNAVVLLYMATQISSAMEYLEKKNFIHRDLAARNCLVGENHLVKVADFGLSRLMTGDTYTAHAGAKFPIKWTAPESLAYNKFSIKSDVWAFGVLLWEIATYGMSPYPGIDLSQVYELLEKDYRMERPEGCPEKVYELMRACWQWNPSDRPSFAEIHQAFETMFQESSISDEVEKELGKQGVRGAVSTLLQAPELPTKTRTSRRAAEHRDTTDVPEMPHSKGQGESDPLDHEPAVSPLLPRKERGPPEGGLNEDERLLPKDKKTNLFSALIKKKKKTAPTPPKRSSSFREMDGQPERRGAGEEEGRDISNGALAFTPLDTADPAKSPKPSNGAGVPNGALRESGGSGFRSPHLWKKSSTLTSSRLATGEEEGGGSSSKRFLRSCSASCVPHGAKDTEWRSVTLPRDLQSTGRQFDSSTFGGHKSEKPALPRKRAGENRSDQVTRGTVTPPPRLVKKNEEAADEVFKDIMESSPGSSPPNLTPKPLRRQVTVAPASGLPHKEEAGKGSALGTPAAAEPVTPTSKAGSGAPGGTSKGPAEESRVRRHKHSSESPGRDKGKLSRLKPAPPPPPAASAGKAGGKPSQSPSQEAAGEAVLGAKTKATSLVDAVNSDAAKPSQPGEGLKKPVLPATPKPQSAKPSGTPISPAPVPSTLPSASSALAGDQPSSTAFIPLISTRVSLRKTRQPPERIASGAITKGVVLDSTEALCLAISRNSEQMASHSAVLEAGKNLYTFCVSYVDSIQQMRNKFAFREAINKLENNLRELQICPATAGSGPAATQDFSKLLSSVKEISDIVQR

- IC50 [1]: 4.2 µM
- IC50 [3]: 15.6 µM
SMILES: CCN(CC)CCO/N=C(/c1ccc(SC)cc1)c1cccc2ccccc12 [Compound 5d, (4-(methylthio)phenyl)(naphthalen-1-yl)methanone O-2-(diethylamino)ethyl oxime oxalate]
- IC50 [2]: 6.78 µM
- differentiation of K562 cells [4]: capable of inducing differentiation in K562 cells in a dose-dependent manner
- % cell death [5]: 40.78%
- apoptotic cell population [6]: concentration-dependent increase in apoptotic cell population
- IC50 [7]: 3.61 µM
- phosphorylation of BCR-ABL (pBCR-ABL) [8]: dose dependently inhibited phosphorylation of BCR-ABL
